Like-named read-outs stand apart in the source and are kept apart here.
How the values were obtained:
[1] = tested on: K. pneumoniae NVT1001 gyrA/parC and gyrA/parC/ramR mutants and revertants; assay: Etest MIC of quinolones, gyrA/parC and gyrA/parC/ramR mutants and their revertants (Table 11); format: cell-based; conditions: Klebsiella pneumoniae
Excerpt: The allelic-exchange method was used to restore the wild-type gene in the K. pneumoniae NVT1001 mutants with constructed chromosome-mediated resistance mechanisms, as described by Tsai et al.^19 Briefly, a DNA fragment of the entire wild-type gene sequence along with flanking regions was amplified from K. pneumoniae NVT1001 using PCR with specific primers. The resulting PCR fragment was digested and then cloned into pUT-KB. For homologous recombination, this plasmid was transformed into E. coli S17-1 λpir^23 via electroporation and mobilized into the K. pneumoniae NVT1001 mutant via conjugation. […] After incubation in 20 mL BHI broth for 6 hours at 37° C. in the absence of kanamycin, the fully grown cultures were spread onto LB agar plates supplemented with 10% sucrose. After the double crossover occurred, the sucrose-resistant and kanamycin-susceptible colonies were selected, and the restoration of the wild-type gene was confirmed via DNA sequencing.
(§1) The MICs of antibiotics were determined using the Etest (Biodisk AB, Sweden) according to the manufacturer's instructions. The MICs from the Etest, which fall between standard two-fold dilutions, were rounded up to the next highest two-fold value. The MICs of ceftazidime and cefotaxime against K. pneumoniae NVT1001 harbouring the pACYC177 plasmid with blaOXA-48 were further determined using a broth microdilution test according to the recommendations of the CLSI,^25 and the results were interpreted according to the breakpoints established by the CLSI in 2017.^25 Meanwhile, due to the lack of CLSI breakpoints in 2016 and 2017, the results for cephalothin were interpreted according to the breakpoints established by the CLSI in 2015,^26 and the results for moxifloxacin were interpreted according to the breakpoints established by the EUCAST in 2017.^27

[2] = tested on: K. pneumoniae NVT1001 strains with QnrB, QnrS or AAC(6′)-Ib-cr plasmids; assay: Etest MIC of quinolones, GyrA/ParC mutations, ΔramR and/or QnrB, QnrS or AAC(6′)-Ib-cr (Table 12); format: cell-based; conditions: Klebsiella pneumoniae
Method: DNA fragments of the resistance genes along with their flanking regions were amplified from clinical plasmids via PCR with specific primer pairs. The resulting PCR fragments were digested and then cloned into the plasmid pACYC177 or pACYC184. The resulting plasmids were then transformed into K. pneumoniae strain NVT1001 via electroporation. The recombinant bacteria were plated onto LB agar plates containing kanamycin (50 mg/L) or chloramphenicol (50 mg/L), and the presence of the cloned gene was confirmed via PCR and DNA sequencing.
as §1

Structure (SMILES): C[C@H]1COc2c(N3CCN(C)CC3)c(F)cc3c(=O)c(C(=O)O)cn1c23 [Levofloxacin, levofloxacin]
- MIC ([1]; S83F/D87N/S80I mutant): 8 µg/mL
- MIC ([1]; S83F/D87N/S80I::F83S/N87D/I80S revertant, read-out: MIC): 0.06 µg/mL
- MIC ([1]; S83F/D87N/S80I::I80S revertant, read-out: MIC): 0.5 µg/mL
- MIC ([1]; S83F/D87N/S80I::N87D revertant, read-out: MIC): 1 µg/mL
- MIC ([1]; S83F/D87N/S80I::N87D/I80S revertant, read-out: MIC): 0.5 µg/mL
- MIC ([1]; S83I/D87N/S80I mutant): 8 µg/mL
- MIC ([1]; S83I/D87N/S80I::I80S revertant, read-out: MIC): 1 µg/mL
- MIC ([1]; S83I/D87N/S80I::I83S/N87D/I80S revertant, read-out: MIC): 0.06 µg/mL
- MIC ([1]; S83I/D87N/S80I::N87D revertant, read-out: MIC): 4 µg/mL
- MIC ([1]; S83I/D87N/S80I::N87D/I80S revertant, read-out: MIC): 1 µg/mL
- MIC ([1]; S83L/D87N/S80I mutant): 8 µg/mL
- MIC ([1]; S83L/D87N/S80I::I80S revertant, read-out: MIC): 1 µg/mL
- MIC ([1]; S83L/D87N/S80I::L83S/N87D/I80S revertant, read-out: MIC): 0.06 µg/mL
- MIC ([1]; S83L/D87N/S80I::N87D revertant, read-out: MIC): 2 µg/mL
- MIC ([1]; S83L/D87N/S80I::N87D/I80S revertant, read-out: MIC): 1 µg/mL
- MIC ([1]; S83Y/D87N/S80I mutant): 4 µg/mL
- MIC ([1]; S83Y/D87N/S80I::I80S revertant, read-out: MIC): 0.5 µg/mL
- MIC ([1]; S83Y/D87N/S80I::N87D revertant, read-out: MIC): 1 µg/mL
- MIC ([1]; S83Y/D87N/S80I::N87D/I80S revertant, read-out: MIC): 0.5 µg/mL
- MIC ([1]; S83Y/D87N/S80I::Y83S/N87D/I80S revertant, read-out: MIC): 0.06 µg/mL
- MIC ([1]; ΔramR/S83I/D87N/S80I mutant): > 32 µg/mL
- MIC ([1]; ΔramR/S83I/D87N/S80I:: ramR/I83S revertant): 0.5 µg/mL
- MIC ([1]; ΔramR/S83I/D87N/S80I:: ramR/I83S/I80S revertant): 0.5 µg/mL
- MIC ([1]; ΔramR/S83I/D87N/S80I:: ramR/I83S/N87D revertant): 0.06 µg/mL
- MIC ([1]; ΔramR/S83I/D87N/S80I::I83S/N87D/I80S revertant): 1 µg/mL
- MIC ([1]; ΔramR/S83I/D87N/S80I::N87D revertant): > 32 µg/mL
- MIC ([1]; ΔramR/S83I/D87N/S80I::N87D/I80S revertant): 8 µg/mL
- MIC ([1]; ΔramR/S83I/D87N/S80I::ramR/I83S/N87D/I80S): 0.06 µg/mL
- MIC ([2]; AAC(6′)-Ib-cr on pACYC177, S83I mutant): 0.5 µg/mL
- MIC ([2]; AAC(6′)-Ib-cr on pACYC177, S83I/D87N/S80I mutant): 8 µg/mL
- MIC ([2]; AAC(6′)-Ib-cr on pACYC177, S83I/S80I mutant): 2 µg/mL
- MIC ([2]; AAC(6′)-Ib-cr on pACYC177, WT (NVT1001), read-out: MIC): 0.06 µg/mL
- MIC ([2]; AAC(6′)-Ib-cr on pACYC177, ΔramR mutant): 1 µg/mL
- MIC ([2]; AAC(6′)-Ib-cr on pACYC177, ΔramR/S83I mutant): 8 µg/mL
- MIC ([2]; AAC(6′)-Ib-cr on pACYC177, ΔramR/S83I/D87N/S80I mutant): > 32 µg/mL
- MIC ([2]; AAC(6′)-Ib-cr on pACYC177, ΔramR/S83I/S80I mutant): > 32 µg/mL
- MIC ([2]; QnrB on pACYC177, S83I mutant): 2 µg/mL
- MIC ([2]; QnrB on pACYC177, S83I/D87N/S80I mutant): > 32 µg/mL
- MIC ([2]; QnrB on pACYC177, S83I/S80I mutant): 16 µg/mL
- MIC ([2]; QnrB on pACYC177, WT (NVT1001), read-out: MIC): 1 µg/mL
- MIC ([2]; QnrB on pACYC177, ΔramR mutant): 8 µg/mL
- MIC ([2]; QnrB on pACYC177, ΔramR/S83I mutant): > 32 µg/mL
- MIC ([2]; QnrB on pACYC177, ΔramR/S83I/D87N/S80I mutant): > 32 µg/mL
- MIC ([2]; QnrB on pACYC177, ΔramR/S83I/S80I mutant): > 32 µg/mL
- MIC ([2]; QnrS on pACYC177, S83I mutant): 4 µg/mL
- MIC ([2]; QnrS on pACYC177, S83I/D87N/S80I mutant): > 32 µg/mL
- MIC ([2]; QnrS on pACYC177, S83I/S80I mutant): 32 µg/mL
- MIC ([2]; QnrS on pACYC177, WT (NVT1001), read-out: MIC): 1 µg/mL
- MIC ([2]; QnrS on pACYC177, ΔramR mutant): 8 µg/mL
- MIC ([2]; QnrS on pACYC177, ΔramR/S83I mutant): > 32 µg/mL
- MIC ([2]; QnrS on pACYC177, ΔramR/S83I/D87N/S80I mutant): > 32 µg/mL
- MIC ([2]; QnrS on pACYC177, ΔramR/S83I/S80I mutant): > 32 µg/mL
- MIC ([2]; no supplemental plasmid, S83I mutant): 0.5 µg/mL
- MIC ([2]; no supplemental plasmid, S83I/D87N/S80I mutant): 8 µg/mL
- MIC ([2]; no supplemental plasmid, S83I/S80I mutant): 2 µg/mL
- MIC ([2]; no supplemental plasmid, WT (NVT1001), read-out: MIC): 0.06 µg/mL
- MIC ([2]; no supplemental plasmid, ΔramR mutant): 1 µg/mL
- MIC ([2]; no supplemental plasmid, ΔramR/S83I mutant): 16 µg/mL
- MIC ([2]; no supplemental plasmid, ΔramR/S83I/D87N/S80I mutant): > 32 µg/mL
- MIC ([2]; no supplemental plasmid, ΔramR/S83I/S80I mutant): > 32 µg/mL
